Paper PMC12226733, “Evolution of iGluR ligand specificity, polyamine regulation, and ion selectivity inferred from a placozoan epsilon receptor” (Communications Biology, 2025)
Positions count from the first letter of the chain named. “And” between values parts separate entries of the source, which are not always exact repeats. Equal values may be shown once. Read-outs that look alike come from different tables or passages of the source.

Key:
GluE1αA wt = GluE1αA wt (Trichoplax adhaerens, UniProt B3SAW0); conditions: for Normalized current (Inorm) GluE1αA wild type: single recordings and AVG
GluE1αA wt, sequence (B3SAW0 1-341): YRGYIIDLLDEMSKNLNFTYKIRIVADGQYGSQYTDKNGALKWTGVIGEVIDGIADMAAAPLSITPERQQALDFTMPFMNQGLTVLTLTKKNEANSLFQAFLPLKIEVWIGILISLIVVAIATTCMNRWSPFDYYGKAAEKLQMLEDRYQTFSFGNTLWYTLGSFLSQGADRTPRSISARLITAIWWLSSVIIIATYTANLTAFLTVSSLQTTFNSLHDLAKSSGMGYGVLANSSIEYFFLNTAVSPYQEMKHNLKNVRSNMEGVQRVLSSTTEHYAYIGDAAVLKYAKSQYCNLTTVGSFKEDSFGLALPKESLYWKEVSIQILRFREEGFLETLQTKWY
From the text: (§1) To further elucidate the nature of internal polyamine block in GluE1αA, we performed outside-out membrane patch clamp experiments in wildtype and mutant channels. […] Current-voltage (I-V) relationships were converted to conductance-voltage (G-V) plots and fit with a single permeant blocker model to estimate both the dissociation constant for Spm at 0 mV (Kd(0mV)) and the voltage dependency of block, as previously described[46],[47].
(§2) HEK-293T/17 cells (ATCC) were maintained in MEM supplemented with GlutaMAX and 10% fetal bovine serum (FBS) at 37 °C and 5% CO2. […] Transient transfections were carried out 48 h post-plating using the calcium phosphate precipitation method. After 6–8 hours, cells were washed twice with PBS and maintained in fresh medium. Cells transfected with mammalian GluA2 cDNA (plasmid vector described above) were returned to an incubator at 37 °C for 24–48 hours and cells transfected with Epsilon GluE1αA were incubated at 28 °C for 48–72 hours. In cells co-transfected with TARP-γ2, 30 μM NBQX was included in the medium to minimize AMPAR/auxiliary-induced cytotoxicity. All constructs were co-transfected with a plasmid encoding enhanced green fluorescent protein (eGFP) to identify transfected cells. Electrophysiology responses were recorded from outside-out patches excised from transfected cells. Recording pipettes were composed of borosilicate glass (3 to 6 megaohm, King Precision Glass) coated with dental wax to reduce electrical noise. All recordings were performed using Axopatch 200B amplifier (Molecular Devices, LLC). Current records were filtered at 5 or 10 kHz and sampled at 25–50 kHz. Series resistance (3 to 12 megaohms) was compensated by 95%. Recordings were performed at a range of holding potentials from −100 mV to 100 mV to study polyamine block. Data was acquired using pClamp9 software (Molecular Devices, LLC). All experiments were performed at room temperature. All chemicals were purchased from Sigma-Aldrich, unless otherwise indicated. External solution contained (in mM): 150 NaCl, 5 HEPES, 0.1 CaCl2, 0.1 MgCl, and […], pH 7.3–7.4. […] The osmotic pressure of all solutions was adjusted to 295 to 300 mOsm with sucrose. […] Stocks were thawed on the day of the experiment and used to prepared agonist-containing external solutions. Raw data for all electrophysiology experiments are provided in Supplementary Data 3. Current-voltage (I-V) relationships were fit using Origin 7 (OriginLab) using a ninth order polynomial function to estimate the reversal potential (Vrev).
(§3) Agonist-evoked membrane conductance (G) was calculated using the following equation: G=I/(V−Vrev)
(§4) Conductance-voltage (G-V) relationships were fit using Origin 7 (OriginLab) with the single permeant blocker model as done previously[46]: G=Gmax/1+[Spm]/Kd Where Gmax is the maximal conductance, [Spm] is the internal Spm concentration, and Kd is the dissociation constant.
(§5) Kd is defined as: Kd=koff+kperm/kon=sumofexitrates/bindingrate
(§6) And redefined as: Kd=g*exp(V/h)+L*exp(V/k) Where h and k are voltage dependencies of g and L, respectively, and at 0 mV: g=koff/konandL=kperm/kon

GluE1αA S642N = target: T1, GluE1αA S642N (Trichoplax adhaerens, UniProt B3SAW0, S167N)
T1 sequence (B3SAW0 1-341 S167N): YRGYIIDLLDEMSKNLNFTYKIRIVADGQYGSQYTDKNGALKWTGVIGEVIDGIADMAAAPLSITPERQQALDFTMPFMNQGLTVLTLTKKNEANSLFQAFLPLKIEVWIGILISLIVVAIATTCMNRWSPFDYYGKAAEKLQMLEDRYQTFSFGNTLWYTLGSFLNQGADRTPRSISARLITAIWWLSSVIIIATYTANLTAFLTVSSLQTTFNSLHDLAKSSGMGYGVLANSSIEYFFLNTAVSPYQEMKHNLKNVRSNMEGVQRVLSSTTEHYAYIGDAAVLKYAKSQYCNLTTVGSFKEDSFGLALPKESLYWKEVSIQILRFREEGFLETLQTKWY
From the text: as §1, §2, §3, §4, §5, §6

GluE1αA S642Q = target: T2, GluE1αA S642Q (Trichoplax adhaerens, UniProt B3SAW0, S167Q)
T2 sequence (B3SAW0 1-341 S167Q): T1 sequence (B3SAW0 1-341 S167N) with N167Q
From the text: as §1, §2, §3, §4, §5, §6

For `NCCCNCCCCNCCCN` [spermine], the “Normalized current (Inorm) GluE1αA wild type” value (GluE1αA wt; 50 mV) was 0.16 and 0.13 and 0.0847, the “Normalized current (Inorm) GluE1αA wild type” value (GluE1αA wt; -100 mV) was -1.00 and the “h, voltage dependency of block onset” value (GluE1αA wt; GluE1αA wt) was −18.5 ± 0.6 mV. For the same molecule, the “k, voltage dependency of block relief” value (GluE1αA wt; GluE1αA wt) was 36.5 ± 4.7 mV, the “Normalized conductance (Gnorm)” value (GluE1αA S642N; 0 mV, single recordings c1-c7, AVG c8) was 0.27 and 0.16 and 0.22 and the “Normalized conductance (Gnorm)” value (GluE1αA S642N; -80 mV, single recordings c1-c7, AVG c8) was 0.79. For the same molecule, the “Normalized current (Inorm)” value (GluE1αA S642N; -100 mV, single recordings c1-c7, AVG c8) was -1.00, the “h, voltage dependency of block onset” value (GluE1αA S642N; GluE1αA S642N) was −26.4 ± 1.3 mV and the “k, voltage dependency of block relief” value (GluE1αA S642N; GluE1αA S642N) was 34.9 ± 3.7 mV. The “Normalized current (Inorm)” value (GluE1αA S642Q; -100 mV, single recordings c1-c10, AVG c11) was -1.00, the “h, voltage dependency of block onset” value (GluE1αA S642Q; GluE1αA S642Q) was −15.3 ± 0.7 mV and the “k, voltage dependency of block relief” value (GluE1αA S642Q; GluE1αA S642Q) was 28.3 ± 2.1 mV.
